molecular target: CD73 (Homo sapiens (Human), UniProt P21589); test: Biochemical assay: inhibition of CD73 activity (AMP hydrolysis, Malachite Green readout); conditions: CD73 0.3208 nM, AMP 15 μM, 25 mM Tris-HCl pH 7.4, RT, absorbance 620 nm
In short: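 Human CD73 (320 pM final) preincubated 15 min at RT with compounds (10-point ½-log titration from 100 μM, duplicates) in 25 mM Tris-HCl pH 7.4, 5 mM MgCl2, 0.01% Brij-35, 0.01% BSA. 15 μM AMP added, 10 min at RT; released phosphate read by Malachite Green absorbance; IC50 determined.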

Sequence of CD73 (P21589 27-574): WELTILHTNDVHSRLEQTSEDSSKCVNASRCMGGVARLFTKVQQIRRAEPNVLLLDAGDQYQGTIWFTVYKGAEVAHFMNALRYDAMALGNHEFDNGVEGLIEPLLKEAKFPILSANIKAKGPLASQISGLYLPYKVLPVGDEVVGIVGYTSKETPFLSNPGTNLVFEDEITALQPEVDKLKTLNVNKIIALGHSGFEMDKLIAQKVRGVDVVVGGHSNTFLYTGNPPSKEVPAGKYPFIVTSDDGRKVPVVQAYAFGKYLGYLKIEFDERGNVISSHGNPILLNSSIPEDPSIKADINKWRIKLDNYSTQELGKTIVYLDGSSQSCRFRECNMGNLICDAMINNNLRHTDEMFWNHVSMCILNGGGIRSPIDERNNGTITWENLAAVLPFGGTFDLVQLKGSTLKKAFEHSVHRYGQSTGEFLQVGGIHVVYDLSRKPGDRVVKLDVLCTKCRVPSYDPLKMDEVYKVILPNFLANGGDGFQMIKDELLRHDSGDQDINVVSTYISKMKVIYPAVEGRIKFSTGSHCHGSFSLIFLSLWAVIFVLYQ

IC50, ≤ 100 nM:
CC(COCC1CC1)(OC[C@H]1O[C@@H](n2ncc3c(NC4CCCC4)nc(Cl)nc32)[C@H](O)[C@@H]1O)P(=O)(O)O (stereo partly drawn) [Example 153, (2-(((2R,3S,4R,5R)-5-(6-chloro-4-(cyclopentylamino)-1H-pyrazolo[3,4-d]pyrimidin-1-yl)-3,4-dihydroxytetrahydrofuran-2-yl)methoxy)-1-(cyclopropylmethoxy)propan-2-yl)phosphonic acid]
COCC(C)(OC[C@H]1O[C@H](n2nnc3c(N[C@@H]4CCc5ccccc54)nc(Cl)nc32)[C@H](O)[C@@H]1O)P(=O)(O)O (stereo partly drawn) [Example 154, (2-(((2R,3S,4R,5S)-5-(5-chloro-7-(((R)-2,3-dihydro-1H-inden-1-yl)amino)-3H-[1,2,3]triazolo[4,5-d]pyrimidin-3-yl)-3,4-dihydroxytetrahydrofuran-2-yl)methoxy)-1-methoxypropan-2-yl)phosphonic acid]
COCC(C)(OC[C@H]1O[C@@H](n2nnc3c(N[C@@H]4CCc5ccccc54)nc(Cl)nc32)[C@H](O)[C@@H]1O)P(=O)(O)O (stereo partly drawn) [Example 155, (2-(((2R,3S,4R,5R)-5-(5-chloro-7-(((R)-2,3-dihydro-1H-inden-1-yl)amino)-3H-[1,2,3]triazolo[4,5-d]pyrimidin-3-yl)-3,4-dihydroxytetrahydrofuran-2-yl)methoxy)-1-methoxypropan-2-yl)phosphonic acid]
CCOCC(C)(OC[C@H]1O[C@@H](n2ncc3c(NC4CCCC4)nc(Cl)nc32)[C@H](O)[C@@H]1O)P(=O)(O)O (stereo partly drawn) [Example 156, (2-(((2R,3S,4R,5R)-5-(6-chloro-4-(cyclopentylamino)-1H-pyrazolo[3,4-d]pyrimidin-1-yl)-3,4-dihydroxytetrahydrofuran-2-yl)methoxy)-1-ethoxypropan-2-yl)phosphonic acid]
COC[C@H](OC[C@H]1O[C@@H](n2nnc3c(NC4CCCC4)cc(Cl)nc32)[C@H](O)[C@@H]1O)P(=O)(O)O [Example 157, ((R)-1-(((2R,3S,4R,5R)-5-(5-chloro-7-(cyclopentylamino)-3H-[1,2,3]triazolo[4,5-b]pyridin-3-yl)-3,4-dihydroxytetrahydrofuran-2-yl)methoxy)-2-methoxyethyl)phosphonic acid]
COCC(C)(OC[C@H]1O[C@@H](n2cnc3c(NC4CCCC4)nc(Cl)nc32)[C@H](O)[C@@H]1O)P(=O)(O)O (stereo partly drawn) [Example 158, (2-(((2R,3S,4R,5R)-5-(2-chloro-6-(cyclopentylamino)-9H-purin-9-yl)-3,4-dihydroxytetrahydrofuran-2-yl)methoxy)-1-methoxypropan-2-yl)phosphonic acid]
COCC(C)(OC[C@H]1O[C@@H](n2ncc3c(NC4CCC4)nc(Cl)nc32)[C@H](O)[C@@H]1O)P(=O)(O)O (stereo partly drawn) [Example 159, (2-(((2R,3S,4R,5R)-5-(6-chloro-4-(cyclobutylamino)-1H-pyrazolo[3,4-d]pyrimidin-1-yl)-3,4-dihydroxytetrahydrofuran-2-yl)methoxy)-1-methoxypropan-2-yl)phosphonic acid]
COCC(OC[C@H]1O[C@@H](n2cnc3c(NC4CCCC4)nc(Cl)nc32)[C@H](O)[C@@H]1O)P(=O)(O)O (stereo partly drawn) [Example 160, (1-(((2R,3S,4R,5R)-5-(2-chloro-6-(cyclopentylamino)-9H-purin-9-yl)-3,4-dihydroxytetrahydrofuran-2-yl)methoxy)-2-methoxyethyl)phosphonic acid]
COC[C@@H](OC[C@H]1O[C@@H](n2nnc3c(NC4CCCC4)cc(Cl)nc32)[C@H](O)[C@@H]1O)P(=O)(O)O [Example 161, ((S)-1-(((2R,3S,4R,5R)-5-(5-chloro-7-(cyclopentylamino)-3H-[1,2,3]triazolo[4,5-b]pyridin-3-yl)-3,4-dihydroxytetrahydrofuran-2-yl)methoxy)-2-methoxyethyl)phosphonic acid]
O=P(O)(O)CS(=O)(=O)C[C@H]1O[C@@H](n2ncc3c(NC4CCCC4)cc(Cl)nc32)[C@H](O)[C@@H]1O [Example 162, (((((2S,3S,4R,5R)-5-(6-chloro-4-(cyclopentylamino)-1H-pyrazolo[3,4-b]pyridin-1-yl)-3,4-dihydroxytetrahydrofuran-2-yl)methyl)sulfonyl)methyl)phosphonic acid]
